Read-outs that look alike come from different tables or passages of the source.
Experiments:
[1] = biological target: T1, human Y5 receptor (hNPY-5) (Homo sapiens, UniProt Q15761); assay: Radioligand binding to membranes, cloned human Y5 receptor
T1 construct: expressed in transfected cells; host or cells: mouse fibroblast LM(tk-) cells, e.g. L-hY5-7 (ATCC CRL-11995)
T1 sequence (Q15761 1-445): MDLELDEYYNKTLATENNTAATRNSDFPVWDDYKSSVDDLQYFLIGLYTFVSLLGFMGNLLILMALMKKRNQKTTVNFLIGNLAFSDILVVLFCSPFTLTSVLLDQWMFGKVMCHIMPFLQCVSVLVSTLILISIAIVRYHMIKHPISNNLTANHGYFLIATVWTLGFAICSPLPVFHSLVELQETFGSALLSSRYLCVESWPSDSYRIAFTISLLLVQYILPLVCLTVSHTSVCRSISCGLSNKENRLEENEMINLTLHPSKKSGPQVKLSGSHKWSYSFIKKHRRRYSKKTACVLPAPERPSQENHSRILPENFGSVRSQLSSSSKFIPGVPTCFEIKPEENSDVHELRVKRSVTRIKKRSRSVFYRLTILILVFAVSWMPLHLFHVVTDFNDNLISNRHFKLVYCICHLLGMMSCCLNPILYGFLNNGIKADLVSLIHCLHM
Procedure, shortened: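 Competition binding on membranes from stably transfected 293 or LM(tk-) cells, with 0.08 nM ¹²⁵I-PYY in pH 7.4 HEPES buffer plus 0.1% BSA, 120 min at 30 °C, filtration and counting. Nonspecific binding defined by 300 nM human NPY, or 100 nM human PP for Y4; nonlinear regression.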

[2] = biological target: T2, human Y5 receptor (h NPY-5) (Homo sapiens, UniProt Q15761); assay: Functional assay: radioimmunoassay of cAMP; type: cell-based; conditions: functional antagonism, forskolin-stimulated cAMP, cells stably transfected with human Y5
T2 construct: expressed in transfected cells; host or cells: mouse fibroblast LM(tk-) cells, e.g. L-hY5-7 (ATCC CRL-11995)
T2 sequence (Q15761 1-445): T1 sequence (Q15761 1-445)
Description: LM(tk-) cells stably transfected with the human Y5 receptor were routinely converted from an adherent monolayer to a viable suspension. Adherent cells were harvested with trypsin at the point of confluence, resuspended in a minimal volume of complete DMEM for a cell count, and further diluted to a concentration of 10^6 cells/ml in suspension media (10% bovine calf serum, 10% 10× Medium 199 (Gibco), 9 mM NaHCO3, 25 mM glucose, 2 mM L-glutamine, 100 units/ml penicillin/100 μg/ml streptomycin, and 0.05% methyl cellulose). The cell suspension was maintained in a shaking incubator at 37° C., 5% CO2 for 24 hours. Membranes harvested from cells grown in this manner may be stored as large, uniform batches in liquid nitrogen. Alternatively, cells may be returned to adherent cell culture in complete DMEM by distribution into 96-well microtiter plates coated with poly-D-lysine (0.01 mg/ml) followed by incubation at 37° C., 5% CO2 for 24 hours. Cells prepared in this manner yielded a robust and reliable NPY-dependent response in cAMP radio-immunoassays as further described hereinbelow.
Stably transfected cells were seeded into 96-well microtiter plates and cultured until confluent. To reduce the potential for receptor desensitization, the serum component of the media was reduced to 1.5% for 4 to 16 hours before the assay. Cells were washed in Hank's buffered saline, or HBS (150 mM NaCl, 20 mM HEPES, 1 mM CaCl2, 5 mM KCl, 1 mM MgCl2, and 10 mM glucose) supplemented with 0.1% bovine serum albumin plus 5 mM theophylline and pre-equilibrated in the same solution for 20 min at 37° C. in 5% CO2. Cells were then incubated 5 min with 10 μM forskolin and various concentrations of receptor-selective ligands. The assay was terminated by the removal of HBS and acidification of the cells with 100 mM HCl. Intracellular cAMP was extracted and quantified with a modified version of a magnetic bead-based radioimmunoassay (Advanced Magnetics, Cambridge, Mass.). The final antigen/antibody complex was separated from free ^125I-cAMP by vacuum filtration through a PVDF filter in a microtiter plate (Millipore, Bedford, Mass.). Filters were punched and counted for ^125I in a Packard gamma counter. Binding data were analyzed using nonlinear regression and statistical techniques available in the GraphPAD Prism package (San Diego, Calif.).

[3] = biological target: hNPY-1,2,4 (human Y1, Y2, Y4 receptors); assay: Radioligand binding to membranes, cloned human Y1, Y2 and Y4 receptors; conditions: one bound given for all three
Description: Binding of the compounds of the present invention to human Y1, Y2, Y4, and Y5 receptors was evaluated using stably transfected 293 or LM(tk-) cells as described above. Stably transfected cell lines which may be used for binding assays include, for example, for the human Y1 receptor, 293-hY1-5 (deposited Jun. 4, 1996, under ATCC Accession No. CRL-12121), for the human Y2 receptor, 293-hY2-10 (deposited Jan. 27, 1994, under ATCC Accession No. CRL-11537), for the human Y4 receptor, L-hY4-3 (deposited Jan. 11, 1995, under ATCC Accession No. CRL-11779), and for human Y5 receptor, L-hY5-7 (deposited Nov. 15, 1995, under ATCC Accession No. CRL-11995). These cell lines were deposited with the American Type Culture Collection (ATCC), 10801 University Blvd., Manassas, Va. 20110-2209, U.S.A. under the provisions of the Budapest Treaty for the International Recognition of the Deposit of Microorganisms for the Purposes of Patent Procedure.
Membranes were harvested from COS-7 cells 48 hours after transient transfection. Adherent cells were washed twice in ice-cold phosphate buffered saline (138 mM NaCl, 8.1 mM Na2HPO4, 2.5 mM KCl, 1.2 mM KH2PO4, 0.9 mM CaCl2, 0.5 mM MgCl2, pH 7.4) and lysed by sonication in ice-cold sonication buffer (20 mM Tris-HCl, 5 mM EDTA, pH 7.7). Large particles and debris were cleared by low speed centrifugation (200×g, 5 min, 4° C.). Membranes were collected from the supernatant fraction by centrifugation (32,000×g, 18 min, 4° C.), washed with ice-cold hypotonic buffer, and collected again by centrifugation (32,000×g, 18 min, 4° C.). The final membrane pellet was resuspended by sonication into a small volume of ice-cold binding buffer (˜1 ml for every 5 plates: 10 mM NaCl, 20 mM HEPES, 0.22 mM KH2PO4, 1.26 mM CaCl2, 0.81 mM MgSO4, pH 7.4). Protein concentration was measured by the Bradford method (Bradford, 1976) using Bio-Rad Reagent, with bovine serum albumin as a standard. Membranes were held on ice for up to one hour and used fresh, or flash-frozen and stored in liquid nitrogen.
Membranes were prepared similarly from 293, LM(tk-), and NIH-3T3 cells. To prepare membranes from baculovirus infected cells, 2×10^7 Sf21 cells were grown in 150 mm tissue culture dishes and infected with a high-titer stock of hY5BB3. Cells were incubated for 2-4 days at 27° C., no CO2 before harvesting and membrane preparation as described above.
Membrane suspensions were diluted in binding buffer supplemented with 0.1% bovine serum albumin to yield an optimal membrane protein concentration so that ^125I-PYY (or alternative radioligand such as ^125I-NPY, ^125I-PYY3-36, or ^125I-[Leu^31Pro^34]PYY) bound by membranes in the assay was less than 10% of ^125I-PYY (or alternative radioligand) delivered to the sample (100,000 dpm/sample=0.08 nM for competition binding assays). ^125I-PYY (or alternative radioligand) and peptide competitors were also diluted to desired concentrations in supplemented binding buffer. Individual samples were then prepared in 96-well polypropylene microtiter plates by mixing 125I-PYY (25 μL) (or alternative radioligand), competing peptides or supplemented binding buffer (25 μL), and finally, membrane suspensions (200 μL). Samples were incubated in a 30° C. water bath with constant shaking for 120 min. Incubations were terminated by filtration over Whatman GF/C filters (pre-coated with 1% polyethyleneimine and air-dried before use), followed by washing with 5 mL of ice-cold binding buffer. Filter-trapped membranes were impregnated with MeltiLex solid scintillant (Wallac, Turku, Finland) and counted for ^125I in a Wallac Beta-Plate Reader. Alternatively, incubations were carried out in GF/C filter plates (pre-coated with 1% polyethyleneimine and air-dried before use), followed by vacuum filtration and three washes of 300 μL of ice-cold binding buffer. 50 μL of UltimaGold (Packard) scintillant were added and counted for ^125I in a Wallac MicroBeta Trilux. […]

[4] = binding Ki as repeated in Table 4, read-out: Ki (h NPY-5)
[5] = cloned human NPY Y5 receptor, radioligand competition binding, Tables 1-3, read-out: Ki, nM hNPY-5

| Ki [1, 4] [nM] | Ki [1, 5] [nM] | Kb [2] [nM] | melting point [°C] | Ki [3] [nM] | SMILES |
| --- | --- | --- | --- | --- | --- |
| 3.2 | 3.2 | 2.51 |  |  | COc1ccc(C)cc1S(=O)(=O)NCCCCCNc1nc2c(s1)CCCc1ccc(F)cc1-2 [Example 15, 1-Aza-9-fluoro-4,5-dihydro-2-(5-(2-methoxy-5-methyl-phenyl)sulfonylamino)pentylamino-3-thia-benzo[e]-azulene] |
|  | 5 |  | 152 to 154 | > 10000 | O=S(=O)(NCCCCCNc1nc2c(s1)CCCc1ccc(F)cc1-2)c1cccs1 [Example 19, 1-Aza-9-fluoro-4,5-dihydro-2-(5-(2-thienyl)-sulfonylamino)-pentylamino-3-thia-benzo[e]azulene] |
|  | 15.5 |  | 50 to 53 | > 10000 | Cn1cnc(S(=O)(=O)NCCCCCNc2nc3c(s2)CCCc2ccc(F)cc2-3)c1 [Example 23, 1-Aza-9-fluoro-4,5-dihydro-2-(5-(1-methylimidazol-4-yl)sulfonylamino)pentylamino-3-thia-benzo[e]azulene] |
| 33.5 | 34 | 63.1 | 179 to 181 |  | CS(=O)(=O)N[C@H]1CC[C@H](Nc2nc3c(s2)CCCc2ccc(F)cc2-3)CC1 [Example 34, trans-1-Aza-9-fluoro-4,5-dihydro-2-(4-methyl-sulfonylamino)-cyclohexylamino-3-thia-benzo[e]azulene] |
|  | 6.5 |  | 172 to 174 | > 10000 | CCN(CC)S(=O)(=O)N[C@H]1CC[C@H](Nc2nc3c(s2)CCCc2ccc(F)cc2-3)CC1 [Example 35, trans-1-Aza-9-fluoro-4,5-dihydro-2-(4-diethylamino-sulfonylamino)cyclohexylamino-3-thia-benzo[e]azulene] |
|  | 7.4 |  | 230 to 231 | > 10000 | O=S(=O)(N[C@H]1CC[C@H](Nc2nc3c(s2)CCCc2ccc(F)cc2-3)CC1)c1cccs1 [Example 37, trans-1-Aza-9-fluoro-4,5-dihydro-2-(4-(2-thienyl)-sulfonyl-amino)cyclohexylamino-3-thia-benzo[e]azulene] |
|  | 15.8 |  | 89 to 91 | > 10000 | O=S(=O)(CC(F)(F)F)N[C@H]1CC[C@H](Nc2nc3c(s2)CCCc2ccc(F)cc2-3)CC1 [Example 38, trans-1-Aza-9-fluoro-4,5-dihydro-2-(4-(2,2,2-trifluoro-ethyl)sulfonylamino)cyclohexylamino-3-thia-benzo [e]azulene] |
|  | 65 |  | 145 to 147 | > 10000 | CS(=O)(=O)NCCCCC(=O)Nc1nc2c(s1)CCCc1ccc(F)cc1-2 [Example 45, N1-(9-fluoro-5,6-dihydro-4H-benzo[6,7]cyclohepta-[d][1,3]thiazol-2-yl)-5-[(methylsulfonyl)amino]-pentanamide] |
|  | 34 |  | 170 to 173 | > 10000 | NS(=O)(=O)NC[C@H]1CC[C@H](Nc2nc3c(s2)CCOc2ccccc2-3)CC1 [Example 46, trans-N2-(4-Aminosulfonylaminomethyl)cyclohexyl-4,5-dihydro-benzo[2,3]oxepino[4,5-d][1,3]thiazol-2-amine] |
|  | 22 |  | 67 to 69 | > 10000 | CS(=O)(=O)NC[C@H]1CC[C@H](Nc2nc3c(s2)CCOc2ccccc2-3)CC1 [Example 47, trans-N2-(4-Methylsulfonylaminomethyl)cyclohexyl-4,5-dihydro-benzo[2,3]oxepino[4,5-d][1,3]thiazol-2-amine] |
| 15.3 | 15.3 | 7.94 | 64 to 67 |  | CS(=O)(=O)N[C@H]1CC[C@H](CNc2nc3c(s2)CCOc2ccccc2-3)CC1 [Example 50, trans-N2-(4-Methylsulfonylamino)cyclohexylmethyl-4,5-dihydro-benzo[2,3]oxepino[4,5-d][1,3]thiazol-2-amine] |
| 20.1 | 20 | 12.6 |  |  | O=C1OCCN1C[C@H]1CC[C@H](Nc2nc3c(s2)CCCc2ccc(F)cc2-3)CC1 [Example 79, 3-({4-[(9-fluoro-5,6-dihydro-4H-benzo[6,7]cyclohepta-[d][1,3]thiazol-2-yl)amino]cyclohexyl}methyl)-1,3-oxazolan-2-one] |
| 32.9 | 33 | 39.8 |  |  | COCC(=O)NC[C@H]1CC[C@H](Nc2nc3c(s2)CCCc2ccc(F)cc2-3)CC1 [Example 80, N1-({4-[(9-fluoro-5,6-dihydro-4H-benzo[6,7]-cyclohepta-[d][1,3]thiazol-2-yl)amino]cyclohexyl}-methyl)-2-methoxyacetamide] |
